# Assay results as given in PubChem BioAssay AID318 (DTP/NCI, 2004).
# “And” between values parts separate entries of the source, which are not always exact repeats. Equal values may be shown once. Inconclusive results and toxic doses are left out.
# System: BDF1 mice, P815 leukemia ip, survival T/C
# Assay: NCI In Vivo Anticancer Drug Screen. Data for tumor model P815 Mast Cell Leukemia (Ascitic) (intraperitoneal) in B6D2F1 (BDF1) mice
# Settings: higher = longer survival
# Procedure: The antitumor activity of compounds was measured in mice bearing transplantable tumors. Survival or tumor size were measured and the results are expressed as the measurement made in the treated group (T) divided by the measurement made in the vehicle treated control group (C). The tumor model used in this assay is P815 Mast Cell Leukemia (Ascitic) (intraperitoneal) in B6D2F1 (BDF1) mice
# [1] = endpoint: survival time, mean or median, dose: 8.0 mg/kg/injection, schedule: Q01DX010 (ip), vehicle: saline
# [2] = endpoint: survival time, mean or median, dose: 16.0 mg/kg/injection, schedule: Q01DX010 (ip), vehicle: saline
# [3] = endpoint: survival time, mean or median, dose: 32.0 mg/kg/injection, schedule: Q01DX010 (ip), vehicle: saline
# [4] = endpoint: survival time, mean or median, dose: 64.0 mg/kg/injection, schedule: Q01DX010 (ip), vehicle: saline
# [5] = endpoint: survival time, mean or median, dose: 62.5 mg/kg/injection, schedule: Q01DX010 (ip), vehicle: saline
# [6] = endpoint: survival time, mean or median, dose: 125.0 mg/kg/injection, schedule: Q01DX010 (ip), vehicle: saline
# [7] = endpoint: survival time, mean or median, dose: 250.0 mg/kg/injection, schedule: Q01DX010 (ip), vehicle: saline
# [8] = endpoint: survival time, mean or median, dose: 12.5 mg/kg/injection, schedule: Q01DX010 (sc), vehicle: steriod suspending solution
# [9] = endpoint: survival time, mean or median, dose: 25.0 mg/kg/injection, schedule: Q01DX010 (sc), vehicle: steriod suspending solution
# [10] = endpoint: survival time, mean or median, dose: 100.0 mg/kg/injection, schedule: Q01DX010 (sc), vehicle: steriod suspending solution
# [11] = endpoint: survival time, mean or median, dose: 50.0 mg/kg/injection, schedule: Q01DX015 (ip), vehicle: carboxymethylcellulose (CMC)
# [12] = endpoint: survival time, mean or median, dose: 25.0 mg/kg/injection, schedule: Q01DX010 (ip), vehicle: saline
# [13] = endpoint: survival time, mean or median, dose: 50.0 mg/kg/injection, schedule: Q01DX010 (ip), vehicle: saline
# [14] = endpoint: survival time, mean or median, dose: 100.0 mg/kg/injection, schedule: Q01DX010 (ip), vehicle: saline
# [15] = endpoint: survival time, mean or median, dose: 200.0 mg/kg/injection, schedule: Q01DX010 (ip), vehicle: saline
smiles,measurement,setting,value
c1ccc(CNc2ncnc3[nH]ncc23)cc1,T/C,[1],100 % of control and 109 % of control
same,T/C,[2],100 % of control
same,T/C,[3],109 % of control
same,T/C,[4],95 % of control and 109 % of control
CC(CCC(C)OS(C)(=O)=O)OS(C)(=O)=O (centres undefined),T/C,"endpoint: survival time, mean or median, dose: 2.0 mg/kg/injection, schedule: Q01DX010 (ip), vehicle: saline",100 % of control
same,T/C,"endpoint: survival time, mean or median, dose: 4.0 mg/kg/injection, schedule: Q01DX010 (ip), vehicle: saline",100 % of control and 105 % of control
same,T/C,[1],100 % of control and 105 % of control
same,T/C,[2],120 % of control
Nc1cc(C(=O)Nc2ccc(C3=NCCN3)cc2)cc(C(=O)Nc2ccc(C3=NCCN3)cc2)c1,T/C,[2],116 % of control
same,T/C,[3],120 % of control
same,T/C,[4],150 % of control
CC(=O)Nc1ccc(/C=N/Nc2ccc([N+](=O)[O-])cn2)cc1,T/C,"endpoint: survival time, mean or median, dose: 31.3 mg/kg/injection, schedule: Q01DX010 (ip), vehicle: saline",100 % of control
same,T/C,[5],100 % of control
same,T/C,[6],100 % of control
same,T/C,[7],88 % of control
C[C@@H]1C[C@H]2CC[C@H](O2)[C@H](C)C(=O)O[C@@H](C)C[C@@H]2CC[C@@H](O2)[C@@H](C)C(=O)O[C@H](C)C[C@H]2CC[C@H](O2)[C@H](C)C(=O)O[C@@H](C)C[C@@H]2CC[C@@H](O2)[C@@H](C)C(=O)O1,T/C,"endpoint: survival time, mean or median, dose: 1.5 mg/kg/injection, schedule: Q01DX015 (ip), vehicle: other",106 % of control
same,T/C,"endpoint: survival time, mean or median, dose: 3.0 mg/kg/injection, schedule: Q01DX015 (ip), vehicle: other",98 % of control
same,T/C,"endpoint: survival time, mean or median, dose: 6.0 mg/kg/injection, schedule: Q01DX015 (ip), vehicle: other",100 % of control
same,T/C,"endpoint: survival time, mean or median, dose: 12.0 mg/kg/injection, schedule: Q01DX015 (ip), vehicle: other",100 % of control
NOCc1ccsn1,T/C,"endpoint: median survival time, dose: 15.0 mg/kg/injection, schedule: Q01DX010 (ip), vehicle: saline sonified",100 % of control
same,T/C,"endpoint: median survival time, dose: 30.0 mg/kg/injection, schedule: Q01DX010 (ip), vehicle: saline sonified",100 % of control
same,T/C,"endpoint: median survival time, dose: 60.0 mg/kg/injection, schedule: Q01DX010 (ip), vehicle: saline sonified",93 % of control
CC[C@]1(O)C[C@H]2CN(CCc3c([nH]c4ccccc34)[C@@](C(=O)OC)(c3cc4c(cc3OC)N(C=O)[C@H]3[C@@](O)(C(=O)OC)[C@H](OC(C)=O)[C@]5(CC)C=CCN6CC[C@]43[C@@H]65)C2)C1,T/C,"endpoint: survival time, mean or median, dose: 0.09 mg/kg/injection, schedule: Q01DX015 (ip), vehicle: carboxymethylcellulose (CMC)",185 % of control
same,T/C,"endpoint: survival time, mean or median, dose: 0.13 mg/kg/injection, schedule: Q01DX015 (ip), vehicle: carboxymethylcellulose (CMC)",183 % of control
same,T/C,"endpoint: survival time, mean or median, dose: 0.2 mg/kg/injection, schedule: Q01DX015 (ip), vehicle: carboxymethylcellulose (CMC)",213 % of control
same,T/C,"endpoint: survival time, mean or median, dose: 0.2 mg/kg/injection, schedule: Q01DX015 (ip), vehicle: saline",107 % of control
same,T/C,"endpoint: survival time, mean or median, dose: 0.3 mg/kg/injection, schedule: Q01DX015 (ip), vehicle: carboxymethylcellulose (CMC)",183 % of control
same,T/C,"endpoint: survival time, mean or median, dose: 0.3 mg/kg/injection, schedule: Q01DX015 (ip), vehicle: saline",95 % of control
same,T/C,"endpoint: survival time, mean or median, dose: 0.45 mg/kg/injection, schedule: Q01DX015 (ip), vehicle: carboxymethylcellulose (CMC)",102 % of control
same,T/C,"endpoint: survival time, mean or median, dose: 0.8 mg/kg/injection, schedule: Q01DX001 (ip), vehicle: saline",170 % of control
same,T/C,"endpoint: survival time, mean or median, dose: 1.8 mg/kg/injection, schedule: Q01DX001 (ip), vehicle: saline",153 % of control
same,T/C,"endpoint: survival time, mean or median, dose: 4.3 mg/kg/injection, schedule: Q01DX001 (ip), vehicle: saline",113 % of control
same,T/C,"endpoint: survival time, mean or median, dose: 12.5 micrograms/kg/injection, schedule: Q01DX015 (ip), vehicle: carboxymethylcellulose (CMC)",116 % of control
same,T/C,"endpoint: survival time, mean or median, dose: 25.0 micrograms/kg/injection, schedule: Q01DX015 (ip), vehicle: carboxymethylcellulose (CMC)",120 % of control
same,T/C,"endpoint: survival time, mean or median, dose: 100.0 micrograms/kg/injection, schedule: Q01DX015 (ip), vehicle: carboxymethylcellulose (CMC)",170 % of control
same,T/C,"endpoint: survival time, mean or median, dose: 150.0 micrograms/kg/injection, schedule: Q01DX015 (ip), vehicle: saline",158 % of control
Oc1cc(CN(CCCl)CCCl)c(O)cc1CN(CCCl)CCCl,T/C,"endpoint: survival time, mean or median, dose: 0.63 mg/kg/injection, schedule: Q01DX010 (ip), vehicle: saline",111 % of control
same,T/C,"endpoint: survival time, mean or median, dose: 1.25 mg/kg/injection, schedule: Q01DX010 (ip), vehicle: saline",116 % of control and 122 % of control
same,T/C,"endpoint: survival time, mean or median, dose: 2.5 mg/kg/injection, schedule: Q01DX010 (ip), vehicle: saline",172 % of control
same,T/C,"endpoint: survival time, mean or median, dose: 5.0 mg/kg/injection, schedule: Q01DX010 (ip), vehicle: saline",122 % of control
same,T/C,"endpoint: survival time, mean or median, dose: 10.0 mg/kg/injection, schedule: Q01DX010 (ip), vehicle: saline",122 % of control
CC/C(=C(/CC)c1ccc(O)cc1)c1ccc(O)cc1,T/C,[8],100 % of control and 104 % of control
same,T/C,[9],100 % of control and 109 % of control
same,T/C,"endpoint: survival time, mean or median, dose: 50.0 mg/kg/injection, schedule: Q01DX010 (sc), vehicle: steriod suspending solution",100 % of control and 104 % of control
same,T/C,[10],100 % of control and 109 % of control
NOCc1cscn1,T/C,"endpoint: median survival time, dose: 25.0 mg/kg/injection, schedule: Q01DX010 (ip), vehicle: saline sonified",87 % of control
same,T/C,"endpoint: median survival time, dose: 50.0 mg/kg/injection, schedule: Q01DX010 (ip), vehicle: saline sonified",100 % of control
CC(=O)OCC1OC(n2cnc3c(=S)nc[nH]c32)C(OC(C)=O)C1OC(C)=O (centres undefined),T/C,[11],162 % of control
same,T/C,"endpoint: survival time, mean or median, dose: 100.0 mg/kg/injection, schedule: Q01DX015 (ip), vehicle: carboxymethylcellulose (CMC)",100 % of control
Nc1nc(SCc2ccccc2)c2[nH]cnc2n1,T/C,[1],100 % of control and 105 % of control
same,T/C,[2],100 % of control and 111 % of control
same,T/C,[4],100 % of control and 122 % of control
CN(C)/N=N/c1nc[nH]c1C(N)=O,T/C,"endpoint: survival time, mean or median, dose: 25.0 mg/kg/injection, schedule: Q01DX015 (ip), vehicle: carboxymethylcellulose (CMC)",103 % of control
same,T/C,[11],110 % of control
same,T/C,"endpoint: survival time, mean or median, dose: 150.0 mg/kg/injection, schedule: Q01DX015 (ip), vehicle: carboxymethylcellulose (CMC)",96 % of control
CSc1ncnc2nc[nH]c12,T/C,[12],100 % of control
same,T/C,[13],100 % of control and 115 % of control
same,T/C,[14],100 % of control and 105 % of control
same,T/C,[15],105 % of control and 110 % of control
CCCCn1cnc2c(=S)nc[nH]c21,T/C,[2],105 % of control
same,T/C,[3],100 % of control
same,T/C,[4],111 % of control
same,T/C,"endpoint: survival time, mean or median, dose: 128.0 mg/kg/injection, schedule: Q01DX010 (ip), vehicle: saline",105 % of control
N=C(N)c1ccc(Nc2ccc(C(=N)N)cc2)cc1,T/C,"endpoint: survival time, mean or median, dose: 3.0 mg/kg/injection, schedule: Q01DX010 (ip), vehicle: saline",94 % of control and 100 % of control
same,T/C,"endpoint: survival time, mean or median, dose: 6.0 mg/kg/injection, schedule: Q01DX010 (ip), vehicle: saline",100 % of control
same,T/C,"endpoint: survival time, mean or median, dose: 12.0 mg/kg/injection, schedule: Q01DX010 (ip), vehicle: saline",88 % of control and 100 % of control
same,T/C,"endpoint: survival time, mean or median, dose: 24.0 mg/kg/injection, schedule: Q01DX010 (ip), vehicle: saline",87 % of control
O=CCC(O)C(O)C(O)CO (centres undefined),T/C,[5],94 % of control and 97 % of control
same,T/C,[6],97 % of control and 105 % of control
same,T/C,[7],105 % of control and 107 % of control
same,T/C,"endpoint: survival time, mean or median, dose: 500.0 mg/kg/injection, schedule: Q01DX010 (ip), vehicle: saline",102 % of control
COc1ccc(CSc2ncnc3nc[nH]c23)cc1,T/C,"endpoint: survival time, mean or median, dose: 62.5 mg/kg/injection, schedule: Q01DX015 (ip), vehicle: carboxymethylcellulose (CMC)",91 % of control
C[C@H](N)C(=O)N[C@@H]1[C@H]2C(=C(O)C[C@@H](O)[C@@H]2O)C(=O)O[C@@H]1C,T/C,"endpoint: survival time, mean or median, dose: 150.0 mg/kg/injection, schedule: Q01DX010 (ip), vehicle: saline",122 % of control
same,T/C,"endpoint: survival time, mean or median, dose: 1200.0 mg/kg/injection, schedule: Q01DX010 (ip), vehicle: saline",183 % of control
CC(=O)O[C@]1(C(C)=O)CC[C@H]2[C@@H]3C[C@H](C)C4=CC(=O)C=C[C@]4(C)[C@@]3(F)[C@@H](O)C[C@@]21C,T/C,"endpoint: survival time, mean or median, dose: 3.13 mg/kg/injection, schedule: Q01DX010 (sc), vehicle: steriod suspending solution",100 % of control
same,T/C,"endpoint: survival time, mean or median, dose: 6.25 mg/kg/injection, schedule: Q01DX010 (sc), vehicle: steriod suspending solution",100 % of control
same,T/C,[8],100 % of control and 106 % of control
same,T/C,[9],100 % of control
same,T/C,[10],93 % of control
CS(=O)(=O)OCC(O)C(O)C(O)C(O)COS(C)(=O)=O (centres undefined),T/C,[12],100 % of control
same,T/C,[13],100 % of control and 112 % of control
same,T/C,[14],95 % of control and 112 % of control
same,T/C,[15],95 % of control and 112 % of control
same,T/C,"endpoint: survival time, mean or median, dose: 400.0 mg/kg/injection, schedule: Q01DX010 (ip), vehicle: saline",112 % of control
